Laboratory results taken from patent US20250215071A1, “Novel Mcl-1 inhibitor and combination of Mcl-1 and a BH3 mimetic, such as a Bcl-2 inhibitor” (NETRIS PHARMA, priority 2022, published 2025).

Legend:
caspase-3 = test: UNC5B-induced caspase-3 activity in HeLa UNC5B cells; type: cell-based, Human; details: doxycycline 2 μg/mL; 18 hours
Procedure: Stable Hela cells inducible for UNC5B (HeLa UNC5B) were treated with doxycycline (Dox) at 2 μg/mL, in combination with the indicated doses of the proteasome inhibitors MG132 and bortezomib (BTZ).
Caspase-3 and -9 activity assays were performed as described previously (Paradisi et al., 2013; Paradisi et al., 2009). Briefly, HCT116 and HeLa cells were seeded and treated as for DNA fragmentation assay. Cells were then collected and caspase-3/caspase 9 activity assays were performed using the Caspase-3/Caspase-9 Fluorometric Assay Kit (BioVision, Milpitas, CA, USA), according to the manufacturer's instructions. Caspase activity (activity/min/mg of protein) was calculated from a 1 h kinetic cycle reading on a spectrofluorometer (405 nm/510 nm, Infinite F500, Tecan, Männedorf, Switzerland).

caspase-9 = test: UNC5B-induced caspase-9 activity in HeLa UNC5B cells; type: cell-based, Human; details: Dox; 18 hours
Procedure: FIG. 5. UNC5B-mediated Mcl-1 degradation induces MOMP and caspase-9 activation. (A): UNC5B over-expression triggers Mitochondrial Outer Membrane Permeabilization (MOMP) in a COMMD2/CRL3 complex-dependent manner. Hela cells were transfected with scramble (siCTRL), COMMD2 (siCOMMD2-1) or RBX1 (siRBX1-1) siRNAs. 24 hours after transfection, cells were treated with Dox and after further 18 hours mitochondrial depolarization quantified by 5′,6,6′-tetrachloro-1,1′,3,3′-tetraethylbenzimi-dazolylcarbocyanine iodide (JC-1) dye staining, using NucleoCounter NC3000 (n=3, **** p<0.0001, ordinary two-way ANOVA with Tukey's multiple comparisons test). Values are given as means±SEM. (B,C,D): Apoptotic cell death induced by UNC5B over-expression requires caspase-9. HeLa UNC5B cells were transfected with scramble (siCTRL) or caspase-9 (siCASP9) siRNAs and 24 hours later treated with the indicated concentrations of Dox. Propidium iodide (PI)-positive cells were assessed in real-time up to 48 hours using Incucyte Zoom instrument (C) (n=[…], Kolmogorov-Smirnov test). DNA fragmentation was assessed by FACS analysis (D) and caspase-3 was measured using caspase-3 fluorometric kit (E), both 18 hours after treatment (n=[…], **** p<0.0001, ordinary two-way ANOVA with Šidák's multiple comparisons test). Values are given as means±SEM. […] HeLa UNC5B cells were treated with Dox and 18 hours later caspase-9 and -8 activities were assessed by fluorometric kit, using specific substrates (n=3, ^nsp>0.05, *p<0.05, Mann-Whitney test, one-tailed). […] 24 hours later, cells were treated with Dox and caspase-9 activity was measured by fluorometric kit (n=3, **** p<0.0001, ordinary two-way ANOVA with Tukey's multiple comparisons test). […] 18 hours after treatment, caspase-9 activity was assessed with the fluorometric kit (n=5, *p<0.05, ** p<0.01, *** p<0.001, **** p<0.0001, ordinary two-way ANOVA with Tukey's multiple comparisons test). […] Cells were then treated with Dox and Mcl-1 protein was evaluated by western blot. […]

[1] = human, in vivo; cited from earlier work

## CC(C)C[C@H](NC(=O)[C@H](Cc1ccccc1)NC(=O)c1cnccn1)B(O)O [bortezomib]
caspase-3
  UNC5B-induced caspase-3 activation: suppressed
caspase-9
  UNC5B-induced caspase-9 activation: sufficient to prevent UNC5B-induced caspase-9 activation

B1: NP137: humanized anti-netrin-1 monoclonal antibody, VH SEQ ID NO: 22, VL SEQ ID NO: 16, human IgG1 (antibody, V domains shown)
VH: QVQLQQSGPGLVKPSQTLSLTCAISGYTFTSYNMHWVRQATGQGLEWMGAIYPGNGDTSYNQKFKGRLTISKDTSKNQVVLTMTNMDPVDTATYYCARGGTGFAYWGQG
VL: DIQMTQSPSSLSASVGDRVTITCKASQSVSNDVAWYQQKPGQAPRLLIYYASNRYTGIPPRFSGSGYGTDFTLTINNIESEDAAYYFCQQDYSSPWTFGQG
modifications: human IgG1 constant region; humanized variant; MISC_FEATURE - CDR according to IGMT
[1]
  safety profile: extremely good safety profile
